Data taken from ChEMBL document CHEMBL3758081, “Synthesis and biological evaluation of new naphthalene substituted thiosemicarbazone derivatives as potent antifungal and anticancer agents” (Eur J Med Chem, 2016).
≈ marks a conversion by molar mass, not a printed value.

How the values were obtained:
[1] = tested on: Aspergillus niger; test: Antifungal activity against Aspergillus niger ATCC-1094 after 72 hrs by broth microdilution method; type: functional; conditions: ATCC-1094, 72 h
[2] = tested on: Candida tropicalis; test: Antifungal activity against Candida tropicalis NRLL Y-12968 after 48 hrs by broth microdilution method; type: functional; conditions: NRLL Y-12968, 48 h
[3] = tested on: [Candida] zeylanoides; test: Antifungal activity against Candida zeylanoides NRLL Y-1774 after 48 hrs by broth microdilution method; type: functional; conditions: Dujonia zeylanoides, NRLL Y-1774, 48 h
[4] = tested on: Candida parapsilosis; test: Antifungal activity against Candida parapsilosis NRLL Y-12696 after 48 hrs by broth microdilution method; type: functional; conditions: Lodderomyces parapsilosis, NRLL Y-12696, 48 h
[5] = Cytotoxicity against mouse NIH/3T3 cells after 24 hrs by XTT assay; type: cell-based; conditions: NIH3T3, 24 h
[6] = tested on: Aspergillus parasiticus; test: Antifungal activity against Aspergillus parasiticus NRRL 465 after 72 hrs by broth microdilution method; type: functional; conditions: NRRL 465, 72 h
[7] = tested on: Nakaseomyces glabratus; test: Antifungal activity against clinical isolate Candida glabrata after 48 hrs by broth microdilution method; type: functional
[8] = tested on: A549; test: Cytotoxicity against human A549 cells after 24 hrs by XTT assay; type: functional, cell-based; conditions: A549, 24 h
[9] = tested on: Candida albicans; test: Antifungal activity against Candida albicans ATCC-90028 after 48 hrs by broth microdilution method; type: functional; conditions: ATCC-90028, 48 h
[10] = tested on: Aspergillus flavus; test: Antifungal activity against Aspergillus flavus NRRL-980 after 72 hrs by broth microdilution method; type: functional; conditions: NRRL-980, 72 h
[11] = tested on: Fusarium solani; test: Antifungal activity against Fusarium solani NRRL-13414 after 72 hrs by broth microdilution method; type: functional; conditions: NRRL-13414, 72 h
[12] = tested on: Pichia kudriavzevii; test: Antifungal activity against Candida krusei NRLL Y-7179 after 48 hrs by broth microdilution method; type: functional; conditions: NRLL Y-7179, 48 h

Fc1cc(F)cc(/C=N/NC(=S)Nc2cccc3ccccc23)c1
MIC [1]: 250 µg/mL (≈ 732 µM) | MIC [2]: 250 µg/mL (≈ 732 µM) | MIC [3]: 250 µg/mL (≈ 732 µM) | MIC [4]: 250 µg/mL (≈ 732 µM) | IC50 [5]: > 500 µg/mL | MIC [6]: 250 µg/mL (≈ 732 µM) | MIC [7]: 250 µg/mL (≈ 732 µM) | IC50 [8]: 500 µg/mL (≈ 1460 µM) | MIC [9]: 250 µg/mL (≈ 732 µM) | MIC [10]: 250 µg/mL (≈ 732 µM) | MIC [11]: 250 µg/mL (≈ 732 µM) | MIC [12]: 250 µg/mL (≈ 732 µM)

Fc1cc(F)c(/C=N/NC(=S)Nc2cccc3ccccc23)c(F)c1
MIC [1]: 250 µg/mL (≈ 696 µM) | MIC [2]: 250 µg/mL (≈ 696 µM) | MIC [3]: 250 µg/mL (≈ 696 µM) | MIC [4]: 250 µg/mL (≈ 696 µM) | IC50 [5]: > 500 µg/mL | MIC [6]: 250 µg/mL (≈ 696 µM) | MIC [7]: 250 µg/mL (≈ 696 µM) | IC50 [8]: > 500 µg/mL | MIC [9]: 250 µg/mL (≈ 696 µM) | MIC [10]: 250 µg/mL (≈ 696 µM) | MIC [11]: 250 µg/mL (≈ 696 µM) | MIC [12]: 250 µg/mL (≈ 696 µM)

Fc1cccc(F)c1/C=N/NC(=S)Nc1cccc2ccccc12
MIC [1]: 250 µg/mL (≈ 732 µM) | MIC [2]: 250 µg/mL (≈ 732 µM) | MIC [3]: 250 µg/mL (≈ 732 µM) | MIC [4]: 250 µg/mL (≈ 732 µM) | IC50 [5]: 31.2 µg/mL (≈ 91.5 µM) | MIC [6]: 250 µg/mL (≈ 732 µM) | MIC [7]: 250 µg/mL (≈ 732 µM) | IC50 [8]: 500 µg/mL (≈ 1460 µM) | MIC [9]: 250 µg/mL (≈ 732 µM) | MIC [10]: 250 µg/mL (≈ 732 µM) | MIC [11]: 250 µg/mL (≈ 732 µM) | MIC [12]: 250 µg/mL (≈ 732 µM)

Fc1ccc(/C=N/NC(=S)Nc2cccc3ccccc23)cc1Cl
MIC [1]: 250 µg/mL (≈ 699 µM) | MIC [2]: 250 µg/mL (≈ 699 µM) | MIC [3]: 250 µg/mL (≈ 699 µM) | MIC [4]: 250 µg/mL (≈ 699 µM) | IC50 [5]: 500 µg/mL (≈ 1400 µM) | MIC [6]: 250 µg/mL (≈ 699 µM) | MIC [7]: 250 µg/mL (≈ 699 µM) | IC50 [8]: 51.3 µg/mL (≈ 143 µM) | MIC [9]: 250 µg/mL (≈ 699 µM) | MIC [10]: 250 µg/mL (≈ 699 µM) | MIC [11]: 250 µg/mL (≈ 699 µM) | MIC [12]: 250 µg/mL (≈ 699 µM)

Fc1ccc(/C=N/NC(=S)Nc2cccc3ccccc23)cc1F
MIC [1]: 250 µg/mL (≈ 732 µM) | MIC [2]: 250 µg/mL (≈ 732 µM) | MIC [3]: 250 µg/mL (≈ 732 µM) | MIC [4]: 250 µg/mL (≈ 732 µM) | IC50 [5]: > 500 µg/mL | MIC [6]: 250 µg/mL (≈ 732 µM) | MIC [7]: 250 µg/mL (≈ 732 µM) | IC50 [8]: 125 µg/mL (≈ 366 µM) | MIC [9]: 250 µg/mL (≈ 732 µM) | MIC [10]: 250 µg/mL (≈ 732 µM) | MIC [11]: 250 µg/mL (≈ 732 µM) | MIC [12]: 250 µg/mL (≈ 732 µM)

Fc1cccc(Cl)c1/C=N/NC(=S)Nc1cccc2ccccc12
MIC [1]: 250 µg/mL (≈ 699 µM) | MIC [2]: 250 µg/mL (≈ 699 µM) | MIC [3]: 250 µg/mL (≈ 699 µM) | MIC [4]: 250 µg/mL (≈ 699 µM) | IC50 [5]: > 500 µg/mL | MIC [6]: 250 µg/mL (≈ 699 µM) | MIC [7]: 250 µg/mL (≈ 699 µM) | IC50 [8]: 125 µg/mL (≈ 349 µM) | MIC [9]: 250 µg/mL (≈ 699 µM) | MIC [10]: 250 µg/mL (≈ 699 µM) | MIC [11]: 250 µg/mL (≈ 699 µM) | MIC [12]: 250 µg/mL (≈ 699 µM)

Fc1ccc(/C=N/NC(=S)Nc2cccc3ccccc23)c(F)c1
MIC [1]: 250 µg/mL (≈ 732 µM) | MIC [2]: 250 µg/mL (≈ 732 µM) | MIC [3]: 250 µg/mL (≈ 732 µM) | MIC [4]: 250 µg/mL (≈ 732 µM) | IC50 [5]: > 500 µg/mL | MIC [6]: 250 µg/mL (≈ 732 µM) | MIC [7]: 250 µg/mL (≈ 732 µM) | IC50 [8]: 31.2 µg/mL (≈ 91.5 µM) | MIC [9]: 250 µg/mL (≈ 732 µM) | MIC [10]: 250 µg/mL (≈ 732 µM) | MIC [11]: 250 µg/mL (≈ 732 µM) | MIC [12]: 250 µg/mL (≈ 732 µM)

CC(=O)N1CCN(c2ccc(OCC3COC(Cn4ccnc4)(c4ccc(Cl)cc4Cl)O3)cc2)CC1 (stereo unspecified) [KETOCONAZOLE]
MIC [1]: 31.2 µg/mL (≈ 58.8 µM) | MIC [2]: 125 µg/mL (≈ 235 µM) | MIC [3]: 250 µg/mL (≈ 470 µM) | MIC [4]: 15.6 µg/mL (≈ 29.4 µM) | MIC [6]: 7.81 µg/mL (≈ 14.7 µM) | MIC [7]: 62.5 µg/mL (≈ 118 µM) | MIC [9]: 62.5 µg/mL (≈ 118 µM) | MIC [10]: 15.6 µg/mL (≈ 29.4 µM) | MIC [11]: 62.5 µg/mL (≈ 118 µM) | MIC [12]: 125 µg/mL (≈ 235 µM)

Fc1ccc(Oc2ccc(/C=N/NC(=S)Nc3cccc4ccccc34)cc2)cc1
MIC [1]: 250 µg/mL (≈ 602 µM) | MIC [2]: 250 µg/mL (≈ 602 µM) | MIC [3]: 250 µg/mL (≈ 602 µM) | MIC [4]: 250 µg/mL (≈ 602 µM) | IC50 [5]: > 500 µg/mL | MIC [6]: 250 µg/mL (≈ 602 µM) | MIC [7]: 250 µg/mL (≈ 602 µM) | IC50 [8]: 62.5 µg/mL (≈ 150 µM) | MIC [9]: 250 µg/mL (≈ 602 µM) | MIC [10]: 250 µg/mL (≈ 602 µM) | MIC [11]: 250 µg/mL (≈ 602 µM) | MIC [12]: 250 µg/mL (≈ 602 µM)
